Converted amounts (≈) assume the structure as drawn. Read-outs that look alike come from different tables or passages of the source.
Assays:
Assay in all cases: In vitro antibacterial activity, broth microdilution MIC90
Type in all cases: cell-based
Enterococcus faecalis = system: Enterococcus faecalis
Description: (§1) MIC90 was measured by broth microdilution method based on CLSI standards [reference: Clinical and Laboratory Standards Institute Document. (2000) Methods for Dilution Antimicrobial Susceptibility Test for Bacteria that Grow Aerobically-Fifth Edition: M7-A5. CLSI, Villanova, Pa.].
(§2) Activities of 12 strains including Staphylococcus aureus, Methicillin Resistant Staphylococcus aureus, Staphylococcus epidermidis, Methicillin Resistant Staphylococcus epidermidis, Enterococcus faecalis, Vancomycin Resistant Enterococcus faecalis, Linezolid and Vancomycin Resistant Enterococcus faecalis, Enterococcus faecium, Vancomycin Resistant Enterococcus faecium, Linezolid and Vancomycin Resistant Enterococcus faecium, and Moraxella catarrhalis, were measured, and results are shown in Table 1 below.
(§3) The final concentration of test material in the antibacterial test was from 0.063 μg/mL (minimum) to 128 μg/mL (maximum), and the final concentration of DMSO used as an excipient was 2.5% (V/V). Linezolid represented by Formula B below (manufactured by Pfizer) was used as a control and bacterial activity thereof was compared with those of the test materials.

Enterococcus faecium = system: Enterococcus faecium
Description: as §1, §2, §3

[1] = system: Linezolid and Vancomycin Resistant Enterococcus faecalis
Description: as §1, §2, §3

[2] = system: Linezolid and Vancomycin Resistant Enterococcus faecium (strain 10)
Description: as §1, §2, §3

[3] = system: Linezolid and Vancomycin Resistant Enterococcus faecium (strain 11)
Description: as §1, §2, §3

[4] = system: Methicillin Resistant Staphylococcus aureus
Description: as §1, §2, §3

[5] = system: Methicillin Resistant Staphylococcus epidermidis
Description: as §1, §2, §3

Moraxella catarrhalis = system: Moraxella catarrhalis
Description: as §1, §2, §3

Staphylococcus aureus = system: Staphylococcus aureus
Description: as §1, §2, §3

[6] = system: Staphylococcus epidermidis
Description: as §1, §2, §3

[7] = system: Vancomycin Resistant Enterococcus faecalis
Description: as §1, §2, §3

[8] = system: Vancomycin Resistant Enterococcus faecium
Description: as §1, §2, §3

[9] = Enterococcus faecalis, strain 5, E. faecalis, read-out: MIC90
[10] = Enterococcus faecium, strain 8, E. faecium, read-out: MIC90
[11] = Enterococcus faecalis, strain 7, E. faecalis VanA LR, read-out: MIC90
[12] = Enterococcus faecium, strain 10, E. faecium VanA LR, read-out: MIC90
[13] = Enterococcus faecium, strain 11, E. faecium VanA LR, read-out: MIC90
[14] = Staphylococcus aureus, strain 2, S. aureus MR, read-out: MIC90
[15] = Staphylococcus epidermidis, strain 4, S. epidermidis MR, read-out: MIC90
[16] = Staphylococcus aureus, strain 1, S. aureus, read-out: MIC90
[17] = Staphylococcus epidermidis, strain 3, S. epidermidis, read-out: MIC90
[18] = Enterococcus faecalis, strain 6, E. faecalis VanA, read-out: MIC90
[19] = Enterococcus faecium, strain 9, E. faecium VanA, read-out: MIC90
[20] = Moraxella catarrhalis, strain 12, M. catarrhalis, read-out: MIC90

MIC90 (Enterococcus faecalis; [9]) [µg/mL] | MIC90 (Enterococcus faecium; [10]) [µg/mL] | MIC90 [1, 11] [µg/mL] | MIC90 [2, 12] [µg/mL] | MIC90 [3, 13] [µg/mL] | MIC90 [4, 14] [µg/mL] | MIC90 [5, 15] [µg/mL] | MIC90 (Staphylococcus aureus; [16]) [µg/mL] | Structure (SMILES) | MIC90 (Enterococcus faecalis; Enterococcus faecalis) [µg/mL] | MIC90 (Enterococcus faecium; Enterococcus faecium) [µg/mL] | MIC90 ([1]; Enterococcus faecalis) [µg/mL] | MIC90 ([2]; Enterococcus faecium) [µg/mL] | MIC90 ([3]; Enterococcus faecium) [µg/mL] | MIC90 ([4]; Staphylococcus aureus) [µg/mL] | MIC90 ([5]; Staphylococcus epidermidis) [µg/mL] | MIC90 (Moraxella catarrhalis; Moraxella catarrhalis) [µg/mL] | MIC90 (Staphylococcus aureus; Staphylococcus aureus) [µg/mL] | MIC90 ([6]; Staphylococcus epidermidis) [µg/mL] | MIC90 ([7]; Enterococcus faecalis) [µg/mL] | MIC90 ([8]; Enterococcus faecium) [µg/mL] | further results
– | – | – | – | – | – | – | – | CNC(=O)N1CCN(c2ccc(-c3ccc(N4C[C@H](Cn5ccnn5)OC4=O)cc3F)cn2)C=N1 [Compound 34] | 0.5 (≈ 1.04 µM) | 0.25 (≈ 0.521 µM) | 2 (≈ 4.17 µM) | 2 (≈ 4.17 µM) | 4 (≈ 8.34 µM) | 0.5 (≈ 1.04 µM) | 1 (≈ 2.09 µM) | 2 (≈ 4.17 µM) | 0.25 (≈ 0.521 µM) | 0.5 (≈ 1.04 µM) | 0.5 (≈ 1.04 µM) | 0.5 (≈ 1.04 µM) | –
– | – | – | – | – | – | – | – | CN1CCN(c2ccc(-c3ccc(N4C[C@H](COc5ccon5)OC4=O)cc3F)cn2)C=N1 [Compound 45] | – | – | – | – | – | – | – | – | – | – | – | – | MIC90 (Enterococcus faecalis; strain 5, E. faecalis): 2 µg/mL (≈ 4.42 µM); MIC90 (Enterococcus faecium; strain 8, E. faecium): 0.5 µg/mL (≈ 1.11 µM); MIC90 ([1]; strain 7, E. faecalis VanA LR): >128 µg/mL; MIC90 ([2]; strain 10, E. faecium VanA LR): >128 µg/mL; MIC90 ([3]; strain 11, E. faecium VanA LR): >128 µg/mL; MIC90 ([4]; strain 2, S. aureus MR): 1 µg/mL (≈ 2.21 µM); MIC90 ([5]; strain 4, S. epidermidis MR): 4 µg/mL (≈ 8.84 µM); MIC90 (Moraxella catarrhalis; strain 12, M. catarrhalis): >128 µg/mL; MIC90 (Staphylococcus aureus; strain 1, S. aureus): 0.5 µg/mL (≈ 1.11 µM); MIC90 ([6]; strain 3, S. epidermidis): 1 µg/mL (≈ 2.21 µM); MIC90 ([7]; strain 6, E. faecalis VanA): 4 µg/mL (≈ 8.84 µM); MIC90 ([8]; strain 9, E. faecium VanA): 2 µg/mL (≈ 4.42 µM)
– | – | – | – | – | – | – | – | O=C(CO)N1CCN(c2ccc(-c3ccc(N4C[C@H](CNc5ccon5)OC4=O)cc3F)cn2)C=N1 [Compound 41] | – | – | – | – | – | – | – | – | – | – | – | – | MIC90 (Enterococcus faecalis; strain 5, E. faecalis): 0.5 µg/mL (≈ 1.01 µM); MIC90 (Enterococcus faecium; strain 8, E. faecium): 0.125 µg/mL (≈ 0.252 µM); MIC90 ([1]; strain 7, E. faecalis VanA LR): 2 µg/mL (≈ 4.04 µM); MIC90 ([2]; strain 10, E. faecium VanA LR): 4 µg/mL (≈ 8.07 µM); MIC90 ([3]; strain 11, E. faecium VanA LR): 4 µg/mL (≈ 8.07 µM); MIC90 ([4]; strain 2, S. aureus MR): 0.25 µg/mL (≈ 0.505 µM); MIC90 ([5]; strain 4, S. epidermidis MR): 2 µg/mL (≈ 4.04 µM); MIC90 (Moraxella catarrhalis; strain 12, M. catarrhalis): 2 µg/mL (≈ 4.04 µM); MIC90 (Staphylococcus aureus; strain 1, S. aureus): 0.25 µg/mL (≈ 0.505 µM); MIC90 ([6]; strain 3, S. epidermidis): 0.5 µg/mL (≈ 1.01 µM); MIC90 ([7]; strain 6, E. faecalis VanA): 1 µg/mL (≈ 2.02 µM); MIC90 ([8]; strain 9, E. faecium VanA): 0.5 µg/mL (≈ 1.01 µM)
– | – | – | – | – | – | – | – | CN1CCN(c2ccc(-c3ccc(N4C[C@H](Cn5ccnn5)OC4=O)cc3F)cn2)C=N1 [Compound 31] | 0.5 (≈ 1.15 µM) | 0.25 (≈ 0.573 µM) | 2 (≈ 4.58 µM) | 1 (≈ 2.29 µM) | 2 (≈ 4.58 µM) | 1 (≈ 2.29 µM) | 1 (≈ 2.29 µM) | 2 (≈ 4.58 µM) | 0.25 (≈ 0.573 µM) | 0.25 (≈ 0.573 µM) | 0.5 (≈ 1.15 µM) | 0.25 (≈ 0.573 µM) | –
0.5 (≈ 1.1 µM) | 0.5 (≈ 1.1 µM) | 2 (≈ 4.38 µM) | 2 (≈ 4.38 µM) | 2 (≈ 4.38 µM) | 1 (≈ 2.19 µM) | 1 (≈ 2.19 µM) | 0.5 (≈ 1.1 µM) | CC(=O)NC[C@H]1CN(c2ccc(-c3ccc(N4C=NN(CCO)CC4)nc3)c(F)c2)C(=O)O1 [Compound 6] | – | – | – | – | – | – | – | – | – | – | – | – | MIC90 [6, 17]: 0.5 µg/mL (≈ 1.1 µM); MIC90 [7, 18]: 0.5 µg/mL (≈ 1.1 µM); MIC90 [8, 19]: 0.5 µg/mL (≈ 1.1 µM)
– | – | – | – | – | – | – | – | CC(=O)NC[C@H]1CN(c2ccc(-c3ccc(N4C=NN(CC(=O)OC(C)(C)C)CC4)nc3)c(F)c2)C(=O)O1 [Compound 9] | 1 (≈ 1.9 µM) | 2 (≈ 3.8 µM) | 8 (≈ 15.2 µM) | 8 (≈ 15.2 µM) | 8 (≈ 15.2 µM) | 4 (≈ 7.6 µM) | 4 (≈ 7.6 µM) | – | 1 (≈ 1.9 µM) | 1 (≈ 1.9 µM) | 2 (≈ 3.8 µM) | 2 (≈ 3.8 µM) | –
1 (≈ 2 µM) | 0.5 (≈ 0.999 µM) | 2 (≈ 4 µM) | 2 (≈ 4 µM) | 4 (≈ 7.99 µM) | 1 (≈ 2 µM) | 1 (≈ 2 µM) | 0.25 (≈ 0.5 µM) | CC(=O)NC[C@H]1CN(c2ccc(-c3ccc(N4C=NN(C(=O)C(O)CO)CC4)nc3)c(F)c2)C(=O)O1 (stereo partly shown) [Compound 21] | – | – | – | – | – | – | – | – | – | – | – | – | MIC90 (Moraxella catarrhalis; [20]): 4 µg/mL (≈ 7.99 µM); MIC90 [6, 17]: 0.5 µg/mL (≈ 0.999 µM); MIC90 [7, 18]: 1 µg/mL (≈ 2 µM); MIC90 [8, 19]: 0.5 µg/mL (≈ 0.999 µM)
0.5 (≈ 1.16 µM) | 0.25 (≈ 0.582 µM) | 4 (≈ 9.32 µM) | 4 (≈ 9.32 µM) | 4 (≈ 9.32 µM) | 0.5 (≈ 1.16 µM) | 1 (≈ 2.33 µM) | 0.25 (≈ 0.582 µM) | COC(=O)NC[C@H]1CN(c2ccc(-c3ccc(N4C=NOCC4)nc3)c(F)c2)C(=O)O1 [Compound 59] | – | – | – | – | – | – | – | – | – | – | – | – | MIC90 (Moraxella catarrhalis; [20]): 2 µg/mL (≈ 4.66 µM); MIC90 [6, 17]: 0.25 µg/mL (≈ 0.582 µM); MIC90 [7, 18]: 0.5 µg/mL (≈ 1.16 µM); MIC90 [8, 19]: 0.25 µg/mL (≈ 0.582 µM)
– | – | – | – | – | – | – | – | CC(=O)NC[C@H]1CN(c2ccc(-c3ccc(N4C=NN(C(N)=O)CC4)nc3)c(F)c2)C(=O)O1 [Compound 17] | 0.25 (≈ 0.549 µM) | 0.25 (≈ 0.549 µM) | 1 (≈ 2.2 µM) | 2 (≈ 4.39 µM) | 2 (≈ 4.39 µM) | 0.5 (≈ 1.1 µM) | 0.5 (≈ 1.1 µM) | 2 (≈ 4.39 µM) | 0.125 (≈ 0.274 µM) | 0.25 (≈ 0.549 µM) | 0.25 (≈ 0.549 µM) | 0.25 (≈ 0.549 µM) | –
